Test results: the METLIN SMRT retention time set (Domingo-Almenara et al. 2019)

test: gradient 5% acetonitrile 3 min, to 50% in 2 min, to 85% in 15 min, held 3 min, 100 µL/min; details: column: Zorbax Extend-C18 2.1 x 50 mm; eluents: water / acetonitrile, 0.1% formic acid
Procedure, shortened: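 Values are retention times taken from adduct peaks that software picked and an analyst inspected. The pure standards were run as mixtures of ~100 molecules on HPLC linked to a quadrupole time-of-flight mass spectrometer, in positive and negative ionization mode. A Zorbax Extend-C18 column (2.1 × 50 mm, 1.8 μm) was used at 100 μL/min with water and acetonitrile, each including 0.1% formic acid.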

| SMILES | RP-LC retention time [s] |
| --- | --- |
| CN(C)CCN(C(=O)CN1C(=O)c2ccccc2C1=O)c1nc2ccc(Cl)cc2s1 | 616 |
| CCOC(=O)CCNC(=O)N1c2ccccc2CC1c1nc(C(C)C)no1 (configuration not stated) | 609 |
| Cc1cc(C)cc(NC(=O)N2CCC3(CC2)NC(=O)c2ccccc2O3)c1 | 842 |
| CCOc1nccnc1N1CCC(N(C)C(=O)Cc2c(C)noc2C)C1 (configuration not stated) | 672 |
| CCN(CC)C(=O)N1CCC(Oc2ccc(-c3noc(COC)n3)cc2)C1 (configuration not stated) | 874 |
| O=C(Cn1cc(-c2nc(-c3ccc(Cl)cc3)no2)ccc1=O)NC1CCCC1 | 928 |
| CN(CCc1ccccn1)C(=O)CCC1CCCN(c2cc(NC3CC3)ncn2)C1 (configuration not stated) | 561 |
| Cc1ccc(-c2ccc3nnc(CCC(=O)NCCCOC(C)C)n3n2)cc1C | 795 |
| COc1ccc(NS(=O)(=O)c2cc(-c3[nH]ncc3C(=O)N(C)C)oc2C)cc1Cl | 699 |
| O=c1c2cc(-c3ccc4c(c3)OCO4)nn2ccn1Cc1nc(-c2ccc(F)cc2)no1 | 1020 |
| Cc1ccc(-c2cc(C(=O)NC3CCCCC3)c(C)[nH]2)cc1C | 1020 |
| CCOc1cccc(-c2noc(Cn3ccn(-c4c(C)cccc4C)c(=O)c3=O)n2)c1 | 951 |
| Cc1cc(-c2c(C)sc(C)c2S(=O)(=O)NCC(C)c2ccccc2)n[nH]1 (configuration not stated) | 1140 |
| CCc1ccccc1NC(=O)N(C)CCc1noc(COc2ccccc2F)n1 | 907 |
| COCCCNc1nc(-c2ccc(OC)cc2)nc2ccccc12 | 690 |
| O=C1NC2(CCN(C(=O)Nc3ccccc3Cl)CC2)N=C1c1ccccc1 | 800 |
| O=C(Cc1cc(-c2cc3ccccc3o2)on1)NCCc1c[nH]c2ccccc12 | 883 |
| Cc1csc(NC(=O)Cn2c(=O)n(C(C)C)c3ccc(-c4noc(C)n4)cc32)n1 | 780 |
| CCOC(=O)N1CCC(NC(=O)C2(c3ccc(F)cc3)CC2)CC1 | 796 |
| O=C(C1=CN(c2cccc(Cl)c2)c2cc(F)ccc2S1(=O)=O)N1CCCC1 | 868 |
| CC(=O)c1cccc(NC(=O)c2nc3nc(C)cc(C(F)F)n3n2)c1 | 734 |
| Cc1ccn2cc(-c3ccc(NS(=O)(=O)c4ccc(C)c([N+](=O)[O-])c4)cc3)nc2n1 | 685 |
| CCOc1ccc(NC(=O)C2(C)CCCCC(=O)N2)cc1 (configuration not stated) | 690 |
| CN(C)c1cccc(-c2nn3c(CSc4ccccc4)nnc3s2)c1 | 1070 |
| CCc1nc2cc(-c3noc(Cc4c[nH]c5ccccc45)n3)ccc2o1 | 1020 |

More lines, now with the values ahead:

| RP-LC retention time [s] | SMILES |
| --- | --- |
| 867 | Cc1ccc(N2C(=O)CCS2(=O)=O)cc1S(=O)(=O)N1c2ccccc2CC1C (configuration not stated) |
| 815 | O=S(=O)(c1cccnc1)N1CC(F)(F)C[C@H]1c1nc(C2CC2)no1 |
| 1300 | Cc1sc(C)c(S(=O)(=O)N2CCN(c3ccccc3)CC2)c1-c1cc(C(F)(F)F)on1 |
| 655 | CC(=O)c1cccc(NC(=O)Nc2cccc(-c3ccc(N4CCOCC4)nn3)c2)c1 |
| 846 | CCc1onc(C)c1C1CCCN1C(=O)CCc1ccccc1 (configuration not stated) |
| 670 | CC(C)n1nc2c(S(=O)(=O)N3CCOCC3)cccn2c1=O |
| 733 | CC1=C(c2ccc(Cl)cc2)S(=O)(=O)N=C1N1CCCN(C(=O)C2CCOC2)CC1 (configuration not stated) |
| 700 | CC(=O)NS(=O)(=O)c1ccc2sc(C)nc2c1 |
| 550 | COC(=O)c1c(NCCCN2CCCC2)c2cccc(Cl)c2[nH]c1=O |
| 980 | Cc1ccc(N2C(=O)CN(S(C)(=O)=O)CC2(C)C(=O)NC2CCCCCCC2)cc1Cl (configuration not stated) |
| 1020 | CS(=O)(=O)N1CCC(C(=O)NCCC2=CCCCC2)Oc2ccc(Cl)cc21 (configuration not stated) |
| 826 | CCOC(=O)c1c(C)oc2nc(C)nc(NCCCN3CCN(c4ccccc4)CC3)c12 |
